Assay results as given in ChEMBL document CHEMBL4390709, “Design, synthesis and biological evaluation of benzimidazole derivatives as novel human Pin1 inhibitors” (Bioorg Med Chem Lett, 2019).

Legend:
[1] = target: Peptidyl-prolyl cis-trans isomerase NIMA-interacting 1 (Homo sapiens, UniProt Q13526); test: Inhibition of recombinant human Pin1 (Met1 to Glu163 residues) expressed in Escherichia coli using Suc-Ala-Glu-cis-Pro-Phe-4-nitroanilide as substrate preincubated for 30 mins followed by substrate addition and measured for 90 secs by protease-coupled assay
PC-3 [2] = test: Cell cycle arrest in human PC3 cells assessed as increase in accumulation at G0/G1-phase measured after 24 hrs by propidium iodide staining based flow cytometry; assay type: functional
PC-3 [3] = test: Cell cycle arrest in human PC3 cells assessed as accumulation at G2/M-phase at 10 uM measured after 24 hrs by propidium iodide staining based flow cytometry (reference value: 28.31%); assay type: functional
PC-3 [4] = test: Cell cycle arrest in human PC3 cells assessed as accumulation at subG1-phase at 10 uM measured after 24 hrs by propidium iodide staining based flow cytometry (reference value: 0.65%); assay type: functional
PC-3 [5] = test: Cell cycle arrest in human PC3 cells assessed as accumulation at subG1-phase at 5 uM measured after 24 hrs by propidium iodide staining based flow cytometry (reference value: 0.65%); assay type: functional
PC-3 [6] = test: Cell cycle arrest in human PC3 cells assessed as accumulation at G0/G1-phase at 2.5 uM measured after 24 hrs by propidium iodide staining based flow cytometry (reference value: 54.26%); assay type: functional
PC-3 [7] = test: Antiproliferative activity against human PC3 cells measured after 96 hrs by MTT assay; assay type: functional; settings: PC-3, 96 h
PC-3 [8] = test: Cell cycle arrest in human PC3 cells assessed as accumulation at G0/G1-phase at 5 uM measured after 24 hrs by propidium iodide staining based flow cytometry (reference value: 54.26%); assay type: functional
PC-3 [9] = test: Cell cycle arrest in human PC3 cells assessed as accumulation at subG1-phase at 2.5 uM measured after 24 hrs by propidium iodide staining based flow cytometry (reference value: 0.65%); assay type: functional
PC-3 [10] = test: Cell cycle arrest in human PC3 cells assessed as accumulation at G2/M-phase at 2.5 uM measured after 24 hrs by propidium iodide staining based flow cytometry (reference value: 28.31%); assay type: functional
PC-3 [11] = test: Cell cycle arrest in human PC3 cells assessed as accumulation at G0/G1-phase at 10 uM measured after 24 hrs by propidium iodide staining based flow cytometry (reference value: 54.26%); assay type: functional
PC-3 [12] = test: Cell cycle arrest in human PC3 cells assessed as accumulation at G2/M-phase at 5 uM measured after 24 hrs by propidium iodide staining based flow cytometry (reference value: 28.31%); assay type: functional

Sequence of Peptidyl-prolyl cis-trans isomerase NIMA-interacting 1 (Q13526 whole entry): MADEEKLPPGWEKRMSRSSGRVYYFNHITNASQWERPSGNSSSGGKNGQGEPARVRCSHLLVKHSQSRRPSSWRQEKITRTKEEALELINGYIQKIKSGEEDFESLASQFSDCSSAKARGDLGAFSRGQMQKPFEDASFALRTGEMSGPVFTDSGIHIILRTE

| SMILES | IC50 [1] | also measured |
| --- | --- | --- |
| CC(C)(C)c1ccc(OC(=O)CCn2c(-c3ccc(C(=O)O)cc3)nc3ccccc32)cc1 | 13.9 µM |  |
| O=C(CCn1c(-c2ccc(C(=O)O)cc2)nc2ccccc21)Oc1cccc2ccccc12 | 1.87 µM |  |
| Cc1cccc(NC(=O)CCn2c(CCC(=O)O)nc3ccccc32)c1 | 7.56 µM |  |
| O=C(NS(=O)(=O)c1ccccc1)c1ccc(-c2nc3ccccc3n2CCCOc2cccc3ccccc23)cc1 | 1 µM | Activity (PC-3 [2]): Dose-dependent effect; Activity (PC-3 [3]): 27.2%; Activity (PC-3 [4]): 0.37%; Activity (PC-3 [5]): 0.49%; Activity (PC-3 [6]): 58.33%; GI50 (PC-3 [7]): 9 µM; Activity (PC-3 [8]): 62.46%; Activity (PC-3 [9]): 0.52%; Activity (PC-3 [10]): 29.01%; Activity (PC-3 [11]): 64.24%; Activity (PC-3 [12]): 27.86% |
| CC(C)(C)c1ccc(OCCCn2c(-c3ccc(C(=O)O)cc3)nc3ccccc32)cc1 | 1.89 µM |  |
| COc1cccc(NC(=O)CCn2c(-c3ccc(C(=O)O)cc3)nc3ccccc32)c1 | 18.7 µM |  |
| Cc1cc(OCCCn2c(-c3ccc(C(=O)O)cc3)nc3ccccc32)cc(C)c1Cl | 0.47 µM |  |
| Cc1ccccc1NC(=O)CCn1c(CCC(=O)O)nc2ccccc21 | 9.81 µM |  |
| O=C(O)c1ccc(-c2nc3ccccc3n2CCC(=O)N(Cc2ccccc2)Cc2ccccc2)cc1 | 5.4 µM |  |
| O=C(CCn1c(-c2ccc(C(=O)O)cc2)nc2ccccc21)Oc1ccc(Oc2ccccc2)cc1 | 1.02 µM |  |
| O=C(CCn1c(-c2ccc(C(=O)O)cc2)nc2ccccc21)Nc1cccc([N+](=O)[O-])c1 | 13.6 µM |  |
| Cc1ccccc1NC(=O)CCn1c(-c2ccc(C(=O)O)cc2)nc2ccccc21 | 7.27 µM |  |
| Cc1cc(OC(=O)CCn2c(-c3ccc(C(=O)O)cc3)nc3ccccc32)cc(C)c1Cl | 0.72 µM |  |
| COc1cc(NC(=O)CCn2c(-c3ccc(C(=O)O)cc3)nc3ccccc32)cc(OC)c1 | 3.57 µM |  |
| O=C(O)c1ccc(-c2nc3ccccc3n2CCCOc2ccc(Oc3ccccc3)cc2)cc1 | 2.2 µM |  |
| O=C(NS(=O)(=O)C(F)(F)F)c1ccc(-c2nc3ccccc3n2CCCOc2cccc3ccccc23)cc1 | 2.26 µM |  |
| O=C(CCn1c(-c2ccc(C(=O)O)cc2)nc2ccccc21)Nc1cccc(C(F)(F)F)c1 | 11.3 µM |  |
| O=C(CCn1c(-c2ccc(C(=O)O)cc2)nc2ccccc21)Nc1cc(Cl)cc(Cl)c1 | 2.89 µM |  |
| Cc1cccc(NC(=O)CCn2c(-c3ccc(C(=O)O)cc3)nc3ccccc32)c1 | 1.1 µM |  |
| O=C(O)c1ccc(-c2nc3ccccc3n2CCC(=O)N(c2ccccc2)c2ccc3ccccc3c2)cc1 | 1.53 µM |  |
| O=C(O)c1ccc(-c2nc3ccccc3n2CCCOc2cccc3ccccc23)cc1 | 0.33 µM |  |
| O=C(O)CCc1nc2ccccc2n1CCC(=O)Nc1ccccc1 | 19.7 µM |  |
| CS(=O)(=O)NC(=O)c1ccc(-c2nc3ccccc3n2CCCOc2cccc3ccccc23)cc1 | 7.83 µM |  |
